Experimental data taken from patent US20170008888A1 (KYORIN PHARMACEUTICAL CO., LTD., priority 2014, published 2017).
Like-named read-outs stand apart in the source and are kept apart here.

What was measured:
human PBMCs = test: Cytokine response by primary human PBMCs stimulated with PMA/ionomycin or LPS; assay type: cell-based; conditions: PBMC
Protocol: Freshly isolated human PBMCs were purchased from Astarte Biologics (Redmond, Wash.). Cells were seeded at 2e6 cells/ml in RPMI 1640 (Life Technologies, Grand Island, N.Y.) containing 10% (v/v) charcoal-dextran treated, heat inactivated FBS (Omega Scientific, Tarzana, Calif.), 0.05 mM 2-Mercaptoethanol (Sigma-Aldrich, St. Louis, Mo.), and 1×Pen/Strep Amphotericin B (Lonza, Allendale, N.J.). Cells were pre-treated with 0.1% DMSO or with test compounds for 1 h at 37° C. in a humidified atmosphere at 5% CO2. Compounds were tested at 10 μM down by ⅕ in a 4-point serial dilution series. Cells were then stimulated with either 50 ng/ml phorbol 12-myristate 13-acetate (PMA)(Sigma-Aldrich)+1 μg/ml ionomycin (Life Technologies) or with 100 ng/ml LPS from E. coli 0111:B4 (EMD Millipore, Billerica, Mass.) for 20 h at 37° C. in a humidified atmosphere at 5% CO2. Supernatant was collected and analyzed using the Bio-Plex Pro Human Cytokine 17-Plex Panel (Bio-Rad Laboratories, Hercules, Calif.) as per manufacturer's protocols. Magnetic beads were read on the Bio-Plex MAGPIX multiplex reader instrument using the accompanying xPONENT 4.2 acquisition software (Bio-Rad Laboratories). Data were analyzed via the Bio-Plex Manager software v6.1 (Bio-Rad Laboratories).

BRD4 = molecular target: T1, BRD4 (Homo sapiens, UniProt O60885); test: Bromodomain binding assay: BRD4
T1 construct: read out by qPCR of the phage DNA
Protocol: (§1) T7 phage strains displaying bromodomains were grown in parallel in 24-well blocks in an E. coli host derived from the BL21 strain. E. coli were grown to log-phase and infected with T7 phage from a frozen stock (multiplicity of infection=0.4) and incubated with shaking at 32° C. until lysis (90-150 minutes). The lysates were centrifuged (5,000×g) and filtered (0.2 μm) to remove cell debris. […] The liganded beads were blocked with excess biotin and washed with blocking buffer (SeaBlock (Pierce), 1% BSA, 0.05 Tween 20, 1 mM DTT) to remove unbound ligand and to reduce non-specific phage binding. […] Test compounds (T62 and 46) were prepared as 1000× stocks in 100% DMSO and subsequently diluted 1:10 in monoethylene glycol (MEG) to create stocks at 100× the screening concentration (resulting stock solution is 10% DMSO/90% MEG). The compounds were then diluted directly into the assays such that the final concentration of DMSO and MEG were 0.1% and 0.9%, respectively. All reactions were performed in polystyrene 96-well plates in a final volume of 0.135 ml. […] The bromodomain concentration in the eluates was measured by qPCR. Compounds were assayed for binding activity against a panel of 40 bromodomain-containing proteins.

TRIM33 = molecular target: T2, TRIM33 (Homo sapiens, UniProt Q9UPN9); test: Bromodomain binding assay: TRIM33
T2 construct: made in house; host or cells: E. coli host derived from the BL21 strain (T7 phage lysate)
Protocol: as §1

[1] = 100 ng/ml LPS 20 h, read-out: EC50 (μM) under LPS stimulation, G-CSF
[2] = 100 ng/ml LPS 20 h, read-out: EC50 (μM) under LPS stimulation, GM-CSF
[3] = 100 ng/ml LPS 20 h, read-out: EC50 (μM) under LPS stimulation, IFNγ
[4] = 100 ng/ml LPS 20 h, read-out: EC50 (μM) under LPS stimulation, IL-1β
[5] = 100 ng/ml LPS 20 h, read-out: EC50 (μM) under LPS stimulation, IL-2
[6] = 100 ng/ml LPS 20 h, read-out: EC50 (μM) under LPS stimulation, IL-4
[7] = 100 ng/ml LPS 20 h, read-out: EC50 (μM) under LPS stimulation, IL-6
[8] = 100 ng/ml LPS 20 h, read-out: EC50 (μM) under LPS stimulation, IL-7
[9] = 100 ng/ml LPS 20 h, read-out: EC50 (μM) under LPS stimulation, IL-10
[10] = 100 ng/ml LPS 20 h, read-out: EC50 (μM) under LPS stimulation, IL-12
[11] = 100 ng/ml LPS 20 h, read-out: EC50 (μM) under LPS stimulation, IL-13
[12] = 100 ng/ml LPS 20 h, read-out: EC50 (μM) under LPS stimulation, IL-17A
[13] = 100 ng/ml LPS 20 h, read-out: EC50 (μM) under LPS stimulation, MCP-1
[14] = 100 ng/ml LPS 20 h, read-out: EC50 (μM) under LPS stimulation, TNFα
[15] = PMA/ionomycin 20 h, read-out: EC50 (μM) under PMA/ionomycin stimulation, GM-CSF
[16] = PMA/ionomycin 20 h, read-out: EC50 (μM) under PMA/ionomycin stimulation, IL-4
[17] = PMA/ionomycin 20 h, read-out: EC50 (μM) under PMA/ionomycin stimulation, IL-5
[18] = PMA/ionomycin 20 h, read-out: EC50 (μM) under PMA/ionomycin stimulation, IL-6
[19] = PMA/ionomycin 20 h, read-out: EC50 (μM) under PMA/ionomycin stimulation, IL-7
[20] = PMA/ionomycin 20 h, read-out: EC50 (μM) under PMA/ionomycin stimulation, IL-10
[21] = PMA/ionomycin 20 h, read-out: EC50 (μM) under PMA/ionomycin stimulation, IL-12
[22] = PMA/ionomycin 20 h, read-out: EC50 (μM) under PMA/ionomycin stimulation, IL-13
[23] = PMA/ionomycin 20 h, read-out: EC50 (μM) under PMA/ionomycin stimulation, IL-17A
[24] = PMA/ionomycin 20 h, read-out: EC50 (μM) under PMA/ionomycin stimulation, MCP-1
[25] = PMA/ionomycin 20 h, read-out: EC50 (μM) under PMA/ionomycin stimulation, MIP-1β
[26] = PMA/ionomycin 20 h, read-out: EC50 (μM) under PMA/ionomycin stimulation, TNFα

T2 sequence (Q9UPN9 957-1080 limits assumed): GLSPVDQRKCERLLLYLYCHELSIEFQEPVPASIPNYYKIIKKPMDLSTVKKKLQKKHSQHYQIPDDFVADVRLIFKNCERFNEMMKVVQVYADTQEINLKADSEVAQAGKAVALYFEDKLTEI

Work on `CCOc1cc(C(=O)N2CCCN(C)CC2)ccc1Nc1cc2c(cn1)N(C)C(=O)c1ccccc1N2C` [Compound 8] yielded an EC50 (human PBMCs; [1]) of 4.95 µM, an EC50 (human PBMCs; [2]) of 4.04 µM and an EC50 (human PBMCs; [3]) of 1.67 µM. It also gave an EC50 (human PBMCs; [4]) of 3.92 µM, an EC50 (human PBMCs; [5]) of 7.93 µM and an EC50 (human PBMCs; [6]) of 10.9 µM. For the same compound, the EC50 (human PBMCs; [7]) was 4.49 µM, the EC50 (human PBMCs; [8]) was 9.89 µM and the EC50 (human PBMCs; [9]) was 1.09 µM. It also gave an EC50 (human PBMCs; [10]) of 1.95 µM, an EC50 (human PBMCs; [11]) of 6.9 µM and an EC50 (human PBMCs; [12]) greater than 10 µM. For the same compound, the EC50 (human PBMCs; [13]) was 0.237 µM, the EC50 (human PBMCs; [14]) was 0.304 µM and the EC50 (human PBMCs; [15]) was 4.67 µM. For the same compound, the EC50 (human PBMCs; [16]) was greater than 10 µM, the EC50 (human PBMCs; [17]) was 3.88 µM and the EC50 (human PBMCs; [18]) was 2.35 µM. It also gave an EC50 (human PBMCs; [19]) greater than 10 µM, an EC50 (human PBMCs; [20]) of 0.627 µM and an EC50 (human PBMCs; [21]) greater than 10 µM. It also gave an EC50 (human PBMCs; [22]) of 4.22 µM, an EC50 (human PBMCs; [23]) greater than 10 µM and an EC50 (human PBMCs; [24]) of 0.401 µM. It also gave an EC50 (human PBMCs; [25]) of 4.28 µM and an EC50 (human PBMCs; [26]) of 8.17 µM.
`CCOc1cc(C(=O)N[C@H]2CC[C@H](O)CC2)ccc1Nc1cc2c(cn1)N(C)C(=O)c1ccccc1N2C` [Compound T62] showed a Kd (BRD4) of 97 nM and a Kd (TRIM33) greater than 20 µM.
`CCOc1cc(C(=O)N2CCC(N3CCCC3)CC2)ccc1Nc1cc2c(cn1)N(C)C(=O)c1ccccc1N2C` [Compound 46, 3-(2-Ethoxy-4-(4-(pyrrolidin-1-yl)piperidine-1-carbonyl)phenylamino)-5,11-dimethyl-5H-benzo[e]pyrido[3,4-b][1,4]diazepin-10(11H)-one] gave a Kd (BRD4) of 41 nM, a Kd (TRIM33) greater than 20 µM and an EC50 (human PBMCs; [1]) of 2.52 µM. For the same compound, the EC50 (human PBMCs; [2]) was 2.14 µM, the EC50 (human PBMCs; [3]) was 0.63 µM and the EC50 (human PBMCs; [4]) was 1.65 µM. The EC50 (human PBMCs; [5]) was 3.12 µM, the EC50 (human PBMCs; [6]) was 5.15 µM and the EC50 (human PBMCs; [7]) was 2.07 µM. It also gave an EC50 (human PBMCs; [8]) of 4.21 µM, an EC50 (human PBMCs; [9]) of 0.467 µM and an EC50 (human PBMCs; [10]) of 0.713 µM. It also gave an EC50 (human PBMCs; [11]) of 3.12 µM, an EC50 (human PBMCs; [12]) greater than 10 µM and an EC50 (human PBMCs; [13]) of 0.104 µM. The EC50 (human PBMCs; [14]) was 0.124 µM, the EC50 (human PBMCs; [15]) was 3.27 µM and the EC50 (human PBMCs; [16]) was greater than 10 µM. The EC50 (human PBMCs; [17]) was 3.16 µM, the EC50 (human PBMCs; [18]) was 0.9 µM and the EC50 (human PBMCs; [19]) was greater than 10 µM. For the same compound, the EC50 (human PBMCs; [20]) was 0.181 µM, the EC50 (human PBMCs; [21]) was greater than 10 µM and the EC50 (human PBMCs; [22]) was 4.77 µM. The EC50 (human PBMCs; [23]) was greater than 10 µM, the EC50 (human PBMCs; [24]) was 0.143 µM and the EC50 (human PBMCs; [25]) was 8.07 µM. It also gave an EC50 (human PBMCs; [26]) of 4.14 µM.
